Key:
[1] = test system: neuro-2a (mouse neuroblastoma cells); test: Action on neuro-2a: proportion of cells containing outgrown neurites; assay type: cell-based; details: mean ± S.D.
Method: (§1) The effects of the compounds of this invention on neuroblastoma cells were examined by the following method.
(§2) Mouse neuro 2a cells in the logarithmic growth period in the Dulbecco's modified Eagle's medium DMEM, containing 100 units/ml of penicillin G sodium and 100 micrograms/ml of streptomycin sulfate]containing 10 % of FCS were seeded in a 48-well plate so that the number of cells was 1,000 cells/well, and cultured for one day in 0.25 ml of the culture fluid in each well in an incubator containing 5 % of carbon dioxide gas in air at 37° C. Then, a 4 % aqueous glutaraldehyde solution in the same amount as a medium (0.25 ml) was added, and the culture fluid was left to stand at room temperature for 2 hours to fix the cells. After washing with water, a 0.05 % aqueous solution of methylene blue was added to stain the cells Under a microscope, the number of cells containing outgrown neurites (cells having at least one neurite with a length of at least two times as large as the long diameter of the cell) was counted visually, and the proportion of these cells in the entire cells was calculated. The well was observed over 5 or more visual fields (at least 2 % of the entire surface area of the well) continuous to the left and right from a mark put at the center of the well, and more than 200 cells was counted. One drug compound was used in 6 different concentrations at most, and three runs were conducted for each concentrations.

[2] = test system: NS-20Y (mouse neuroblastoma cells); test: Activity on NS-20Y cells: appearance of neurites; assay type: cell-based
Method: as §1, §2
Mouse neuroblastoma cells NS-20Y were similarly cultured in a dish coated with polyornithine, and the effects of the compounds were examined.

Row | SMILES | Number of cells having neurites with a length at least two times the diameter of each cell/total number of cells ([1]; 0.03 mM) | Number of cells having neurites with a length at least two times the diameter of each cell/total number of cells ([1]; 0.1 mM) | further results
1 | CC(=O)N(C)c1cc(C)nc(N2CCCCC2)n1 [Compound 384] | – | – | Number of cells having neurites with a length at least two times the diameter of each cell/total number of cells ([1]; 0.3 mM): 10.4 ± 2.5%; Number of cells having neurites with a length at least two times the diameter of each cell/total number of cells ([1]; 1 mM): 10.8 ± 7.2%; Number of cells in which neurites appeared/total number of cells ([2]; 24 hours, 0.4 mM): 8/50; Number of cells in which neurites appeared/total number of cells ([2]; 48 hours, 0.4 mM): 3/50
2 | CN(C(=O)C(C)(C)C)c1ccnc(N2CCC(c3ccccc3)CC2)n1 [Compound 224] | 4.6 ± 1.7% | 5.5 ± 1.5% | Number of cells in which neurites appeared/total number of cells ([2]; 24 hours, 0.02 mM): 6/50; Number of cells in which neurites appeared/total number of cells ([2]; 48 hours, 0.02 mM): 3/50
3 | Cc1ccc(C(c2ccccc2)N2CCN(c3ncc4c(n3)N(C)C(=O)C4)CC2)cc1.Cc1ccc(S(=O)(=O)O)cc1 (stereo not drawn) [Compound 3152, 2-(4-(α(4-methylphenyl)benzyl)piperazino)-5,6-dihydro-7-methyl-6-oxo(7H)pyrrolo[2,3-d)pyrimidine p-toluenesulfonate] | 11.4 ± 3.1% | 6.8 ± 4.2% | –
4 | CN1CCN(C(=O)N(C)c2ccnc(N3CCC(c4ccccc4)CC3)n2)CC1 [Compound 2234] | 5.1 ± 3.2% | 5.7 ± 2.8% | –
5 | CN(C(=O)c1ccccc1)c1ccnc(NC2CCN(C(=O)c3ccccc3)CC2)n1 [Compound 2202] | – | 2.2 ± 2.0% | –
6 | CN(C(=O)c1ccccc1)c1ccnc(N2CCC(c3ccccc3)CC2)n1 [Compound 165] | – | 41.0 ± 0.7% | Number of cells having neurites with a length at least two times the diameter of each cell/total number of cells ([1]; 0.3 mM): 12.4 ± 1.8%
7 | CN(C(=O)c1ccccc1)c1ccnc(N2CCC(N3CCCCC3)CC2)n1 [Compound 2052] | 3.7 ± 0.4% | – | Number of cells having neurites with a length at least two times the diameter of each cell/total number of cells ([1]; 0.01 mM): 4.6 ± 2.1%
8 | CC(C)N(C(=O)c1ccccc1)c1nccc(N2CCC(c3ccccc3)CC2)n1 [Compound 652] | 6.1 ± 0.6% | 12.5 ± 2.8% | –
9 | CCOC(=O)c1cnc(N2CCCCC2)nc1CSC [Compound 816] | 4.7 ± 2.1% | 4.0 ± 0.3% | –
10 | CNc1ccnc(N2CCc3ccccc3C2)n1 [Compound 1038] | 2.2 ± 0.4% | 2.9 ± 0.3% | –
11 | CN1C(=O)Cc2cnc(N3CCN(C4c5ccccc5-c5ccccc54)CC3)nc21 [Compound 3200] | – | – | Number of cells having neurites with a length at least two times the diameter of each cell/total number of cells ([1]; 0.01 mM): 2.7 ± 0.7%
12 | CNc1nccc(N2CCC(c3ccccc3)CC2)n1 [Compound 1122] | 10.2 ± 3.8% | – | Number of cells having neurites with a length at least two times the diameter of each cell/total number of cells ([1]; 0.01 mM): 4.2 ± 2.1%
13 | CC(C)N(Cc1ccccc1)c1nccc(N(C)C(=O)c2ccccc2)n1 [Compound 662] | – | 3.1 ± 1.6% | Number of cells having neurites with a length at least two times the diameter of each cell/total number of cells ([1]; 0.3 mM): 2.6 ± 0.9%

Source: US5147876A, “2,6-di,2,4,6-, 2,5,6-tri and 2,4,5,6-tetra-substituted pyrimidines, their pharmaceutically acceptable salts, pharmaceutical compositions containing same and their use in the treatment of neurological diseases” (Mitsui Petrochemical Industries, Ltd., priority 1988, dated 1992)
